The values that follow come from article PMC9798496 (ACS Omega, 2022).

The subject of this data set is healthy mice. The data set can be described thus: MicroPET/CT biodistribution in healthy mice. The class given is in vivo. Particulars: PET/CT.

SMILES strings stand for the structures. “Also recorded” adds a separate entry of the source.

Consider `OC[C@H]1OC(O)[C@H](F)[C@@H](O)[C@@H]1O` (some centres unmarked) [[^18F]FDG, fluorodeoxyglucose], for which the “site of uptake, metabolism and elimination” value is “typical metabolism in the heart, brain, and brown fat; also recorded: uptake was observed in the brain and heart”; the “uptake in the center of the brain” value was “about 1.6 SUV”; the “uptake in the center of the heart” value is “about 2.7 SUV”. Further, the “brain uptake of [18F]FDG relative to [18F]Glc1” value (center of the brain) was “about 20 times”. Under “center of the heart”, the “heart uptake of [18F]FDG relative to [18F]Glc1” value is on record as “about 14 times”.
